The target of the assay is T1, ENT1 (Homo sapiens, UniProt Q99808).
T1 construct: gene SLC29A1
T1 sequence (Q99808 2-456): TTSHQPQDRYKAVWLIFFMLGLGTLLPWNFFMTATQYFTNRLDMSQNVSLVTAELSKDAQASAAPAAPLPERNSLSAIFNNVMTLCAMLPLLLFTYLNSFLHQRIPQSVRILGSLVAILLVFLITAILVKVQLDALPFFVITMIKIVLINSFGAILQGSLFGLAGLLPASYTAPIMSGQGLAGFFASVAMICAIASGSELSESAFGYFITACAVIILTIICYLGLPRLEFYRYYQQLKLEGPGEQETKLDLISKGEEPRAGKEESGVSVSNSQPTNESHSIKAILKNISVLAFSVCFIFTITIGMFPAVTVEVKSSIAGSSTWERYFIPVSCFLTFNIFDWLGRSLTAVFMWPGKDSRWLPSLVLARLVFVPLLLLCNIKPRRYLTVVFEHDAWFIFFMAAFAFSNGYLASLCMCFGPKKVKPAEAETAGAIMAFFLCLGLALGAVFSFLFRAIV
Briefly: NBMPR-sensitive [3H] uridine uptake in primary human Sertoli cells and hT-SerCs (endogenous ENT1). Type of assay: cell-based.

On to `O=c1ccn([C@@H]2O[C@H](CO)[C@@H](O)[C@H]2O)c(=O)[nH]1` [uridine], for which the “NBMPR-sensitive [3H] uridine uptake in primary human Sertoli cells and hT-SerCs” value is reported as “These data suggest that uridine uptake into both cells is primarily mediated by ENT1 with minimal contribution by ENT2”.

Source of the values: article PMC7690448, “Generation of a hTERT-Immortalized Human Sertoli Cell Model to Study Transporter Dynamics at the Blood-Testis Barrier” (Pharmaceutics, 2020).
